From patent US7776847B2, “Benzisothiazoles useful for treating or preventing HCV infection” (priority 2005, dated 2010)

System: HCV replicon
Experiment: HCV replicon luciferase reporter assay
Format: cell-based
Settings: Hepatitis C virus, Table 5; read-out: IC50
Method in brief: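 IC50 is the compound amount halving luciferase signal, measured after 24–48 h treatment at various concentrations. Cells carrying the HCV replicon were pre-incubated 24 h at 37° C, 5% CO2 after seeding at about 5,000–7,500 cells/well before dosing.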

## COc1cc(F)ccc1-c1ccc(NC(=O)NCCCNc2nsc3ccccc23)cc1 [Compound 393, 1-(3-(benzo[d]isothiazol-3-ylamino)propyl)-3-(4′-fluoro-2′-methoxybiphenyl-4-yl)urea]
  IC50: < 5 µM

## O=C(NCCCNc1nsc2ccccc12)c1cccc(C2=CCNCC2)c1 [Compound 394, N-(3-(benzo[d]isothiazol-3-ylamino)propyl)-3-(1,2,3,6-tetrahydropyridin-4-yl)benzamide]
  IC50: < 5 µM

## COc1ccccc1-c1ccc(NC(=O)NCCCNc2nsc3ccccc23)cc1 [Compound 395, 1-(3-(benzo[d]isothiazol-3-ylamino)propyl)-3-(2′-methoxybiphenyl-4-yl)urea]
  IC50: < 5 µM

## O=C(NCCCNc1nsc2ccccc12)c1ccc(O)c(Br)c1 [Compound 396, N-(3-(benzo[d]isothiazol-3-ylamino)propyl)-3-bromo-4-hydroxybenzamide]
  IC50: < 5 µM

## O=C(NCCCNc1nsc2ccccc12)c1ccc(OCCN2CCOCC2)c(Br)c1 [Compound 397, N-(3-(benzo[d]isothiazol-3-ylamino)propyl)-3-bromo-4-(2-morpholinoethoxy)benzamide]
  IC50: < 5 µM

## COc1ccc(-c2ccc(C(=O)NCCCNc3nsc4cccc(S(=O)(=O)NC(C)(C)C)c34)cc2)cc1 [Compound 398, N-(3-(4-(N-tert-butylsulfamoyl)benzo[d]isothiazol-3-ylamino)propyl)-4′-methoxybiphenyl-4-carboxamide]
  IC50: > 5 µM

## COc1ccc(-c2ccc(C(=O)NCCCNc3nsc4cc(S(=O)(=O)NC(C)(C)C)ccc34)cc2)cc1 [Compound 399, N-(3-(6-(N-tert-butylsulfamoyl)benzo[d]isothiazol-3-ylamino)propyl)-4′-methoxybiphenyl-4-carboxamide]
  IC50: > 5 µM

## COc1ccc(-c2ccc(C(=O)NCCCNc3nsc4c(S(=O)(=O)C(C)(C)C)cccc34)cc2)cc1 [Compound 400, N-(3-(7-(tert-butylsulfonyl)benzo[d]isothiazol-3-ylamino)propyl)-4′-methoxybiphenyl-4-carboxamide]
  IC50: < 5 µM

## COc1ccc(-c2ccc(C(=O)NCCCNc3nsc4cccc(S(N)(=O)=O)c34)cc2)cc1 [Compound 401, 4′-methoxy-N-(3-(4-sulfamoylbenzo[d]isothiazol-3-ylamino)propyl)biphenyl-4-carboxamide]
  IC50: > 5 µM

## COc1ccc(-c2ccc(C(=O)NCCCNc3nsc4cc(S(N)(=O)=O)ccc34)cc2)cc1 [Compound 402, 4′-methoxy-N-(3-(6-sulfamoylbenzo[d]isothiazol-3-ylamino)propyl)biphenyl-4-carboxamide]
  IC50: < 5 µM

## COc1ccc(-c2ccc(CNCCCNc3nsc4ccc(Br)cc34)cc2)cc1 [Compound 404, N^1-(5-bromobenzo[d]isothiazol-3-yl)-N^3-((4′-methoxybiphenyl-4-yl)methyl)propane-1,3-diamine]
  IC50: < 5 µM

## COc1ccc(-c2ccc(C(=O)NCCCNc3nsc4ccc(-c5ccccc5)cc34)cc2)cc1 [Compound 405, 4′-methoxy-N-(3-(5-phenylbenzo[d]isothiazol-3-ylamino)propyl)biphenyl-4-carboxamide]
  IC50: < 5 µM

## COc1ccc(-c2ccc(C(=O)NCCCNc3nsc4ccc(-c5ccc(OC)cc5)cc34)cc2)cc1 [Compound 406, 4′-methoxy-N-(3-(5-(4-methoxyphenyl)benzo[d]isothiazol-3-ylamino)propyl)biphenyl-4-carboxamide]
  IC50: < 5 µM

## COc1ccc(-c2ccc(C(=O)NCCCNc3nsc4ccc(-c5cccc(OC)c5F)cc34)cc2)cc1 [Compound 407, N-(3-(5-(2-fluoro-3-methoxyphenyl)benzo[d]isothiazol-3-ylamino)propyl)-4′-methoxybiphenyl-4-carboxamide]
  IC50: < 5 µM

## COc1ccc(-c2ccc(C(=O)NCCCNc3nsc4ccc(-c5ccc(OC(C)C)cc5)cc34)cc2)cc1 [Compound 409, N-(3-(5-(4-isopropoxyphenyl)benzo[d]isothiazol-3-ylamino)propyl)-4′-methoxybiphenyl-4-carboxamide]
  IC50: < 5 µM

## COc1ccc(-c2ccc(CNCCCNc3nsc4ccc(-c5ccc(OC)cc5)cc34)cc2)cc1 [Compound 410, N^1-((4′-methoxybiphenyl-4-yl)methyl)-N^3-(5-(4-methoxyphenyl)benzo[d]isothiazol-3-yl)propane-1,3-diamine]
  IC50: < 5 µM

## COc1ccc(-c2ccc(CNCCCNc3nsc4ccc(-c5cc(F)cc(F)c5)cc34)cc2)cc1 [Compound 411, N^1-(5-(3,5-difluorophenyl)benzo[d]isothiazol-3-yl)-N^3-((4′-methoxybiphenyl-4-yl)methyl)propane-1,3-diamine]
  IC50: < 5 µM

## Cn1c(C(=O)NCCNc2nsc3ccccc23)cc2ccccc21 [Compound 412, N-(2-(benzo[d]isothiazol-3-ylamino)ethyl)-1-methyl-1H-indole-2-carboxamide]
  IC50: < 5 µM

## O=C(NCCNc1nsc2ccccc12)c1cc(-c2ccccc2)n[nH]1 [Compound 413, N-(2-(benzo[d]isothiazol-3-ylamino)ethyl)-3-phenyl-1H-pyrazole-5-carboxamide]
  IC50: > 5 µM

## O=Cc1cccc(C(=O)NCCNc2nsc3ccccc23)c1 [Compound 414, N-(2-(benzo[d]isothiazol-3-ylamino)ethyl)-3-formylbenzamide]
  IC50: > 5 µM

## O=Cc1ccc(C(=O)NCCNc2nsc3ccccc23)cc1 [Compound 415, N-(2-(benzo[d]isothiazol-3-ylamino)ethyl)-4-formylbenzamide]
  IC50: > 5 µM

## O=C(NCCNc1nsc2ccccc12)c1cccc(CO)c1 [Compound 416, N-(2-(benzo[d]isothiazol-3-ylamino)ethyl)-3-(hydroxymethyl)benzamide]
  IC50: > 5 µM

## c1ccc2c(NCCNc3nsc4ccccc34)nsc2c1 [Compound 417, N^1,N^2-di(benzo[d]isothiazol-3-yl)ethane-1,2-diamine]
  IC50: > 5 µM

## CCCNC(=O)c1ccc(C(=O)NCCNc2nsc3ccccc23)cc1 [Compound 418, N^1-(2-(benzo[d]isothiazol-3-ylamino)ethyl)-N^4-propylterephthalamide]
  IC50: > 5 µM

## O=C(NCCCNc1nsc2ccccc12)c1cccc(Br)n1 [Compound 419, N-(3-(benzo[d]isothiazol-3-ylamino)propyl)-6-bromopicolinamide]
  IC50: < 5 µM

## O=C(NCCCNc1nsc2ccccc12)c1cccc(F)n1 [Compound 420, N-(3-(benzo[d]isothiazol-3-ylamino)propyl)-6-fluoropicolinamide]
  IC50: > 5 µM

## CCCCc1ccc(C(=O)NCCNc2nsc3ccc(Cl)cc23)cc1 [Compound 421, 4-butyl-N-(2-(5-chlorobenzo[d]isothiazol-3-ylamino)ethyl)benzamide]
  IC50: < 5 µM

## CCCCNC(=O)c1ccc(C(=O)NCCNc2nsc3ccccc23)cc1 [Compound 422, N^1-(2-(benzo[d]isothiazol-3-ylamino)ethyl)-N^4-butylterephthalamide]
  IC50: < 5 µM

## CCCCCOc1ccc(C(=O)NCCNc2nsc3ccc(Cl)cc23)cc1 [Compound 423, N-(2-(5-chlorobenzo[d]isothiazol-3-ylamino)ethyl)-4-(pentyloxy)benzamide]
  IC50: < 5 µM

## CC(C)(C)OC(=O)N1CCCC(C(=O)NCCNc2nsc3ccc(Cl)cc23)C1 (stereo not drawn) [Compound 424, tert-butyl 3-(2-(5-chlorobenzo[d]isothiazol-3-ylamino)ethylcarbamoyl)piperidine-1-carboxylate]
  IC50: < 5 µM
